What was measured:
Type in all cases: functional
Settings in all cases: HCT-116, 72 h, time 3 day
HCT-116 [1] = assay: Antiproliferative activity against human HCT-116 cells assessed as cell growth inhibition at 0.4 uM after 3 days by ATPlite assay relative to control
HCT-116 [2] = assay: Antiproliferative activity against human HCT-116 cells assessed as cell growth inhibition at 20 uM after 3 days by ATPlite assay relative to control
HCT-116 [3] = assay: Antiproliferative activity against human HCT-116 cells assessed as cell growth inhibition at 1 uM after 3 days by ATPlite assay relative to control
HCT-116 [4] = assay: Antiproliferative activity against human HCT-116 cells assessed as cell growth inhibition at 10 uM after 3 days by ATPlite assay relative to control

SMILES: COc1ccc(/C=C/C(=O)O[C@@H]2CC[C@@H]3CCC[C@H](CC(=O)O)N3[C@H]2C)cc1
- inhibition at 0.4 µM (HCT-116 [1]): -6.1%
- inhibition at 20 µM (HCT-116 [2]): 80.2%
- inhibition at 1 µM (HCT-116 [3]): 0.9%
- inhibition at 10 µM (HCT-116 [4]): 62.3%

SMILES: C[C@H]1[C@H](OC(=O)/C=C/c2ccccc2)CC[C@@H]2CCC[C@H](CC(=O)O)N21
- inhibition at 0.4 µM (HCT-116 [1]): -3.6%
- inhibition at 20 µM (HCT-116 [2]): 0.7%
- inhibition at 1 µM (HCT-116 [3]): -7.8%
- inhibition at 10 µM (HCT-116 [4]): -4.2%

SMILES: C[C@H]1[C@H](OC(=O)c2ccccc2)CC[C@@H]2CCC[C@H](CC(=O)O)N21
- inhibition at 0.4 µM (HCT-116 [1]): -12.8%
- inhibition at 20 µM (HCT-116 [2]): -6.2%
- inhibition at 1 µM (HCT-116 [3]): -4.3%
- inhibition at 10 µM (HCT-116 [4]): -10.2%

SMILES: COc1ccc(C(=O)O[C@@H]2CC[C@@H]3CCC[C@H](CC(=O)O)N3[C@H]2C)c(OC)c1
- inhibition at 0.4 µM (HCT-116 [1]): -6.1%
- inhibition at 20 µM (HCT-116 [2]): -3.2%
- inhibition at 1 µM (HCT-116 [3]): -8%
- inhibition at 10 µM (HCT-116 [4]): -4.7%

SMILES: COc1ccc(C(=O)O[C@@H]2CC[C@@H]3CCC[C@H](CC(=O)O)N3[C@H]2C)cc1OC
- inhibition at 0.4 µM (HCT-116 [1]): -3.6%
- inhibition at 20 µM (HCT-116 [2]): -13.1%
- inhibition at 1 µM (HCT-116 [3]): -5.5%
- inhibition at 10 µM (HCT-116 [4]): -6.4%

SMILES: COc1cccc2c1C(=O)c1c(O)c3c(c(O)c1C2=O)C[C@@](O)(C(=O)CO)C[C@@H]3O[C@H]1C[C@H](N)[C@H](O)[C@H](C)O1 [DOXORUBICIN]
- inhibition at 0.4 µM (HCT-116 [1]): 84.5%
- inhibition at 20 µM (HCT-116 [2]): 91.7%
- inhibition at 1 µM (HCT-116 [3]): 96.3%
- inhibition at 10 µM (HCT-116 [4]): 91.1%

Source: ChEMBL document CHEMBL5033988, “Quinolizidine Alkaloids from Cylicomorpha solmsii” (2021)
